Entries after “also recorded” stand apart in the source; their conditions may differ.
Key:
[1] = system: THP1 human macrophage cells; assay: Stimulation of THP-1 cells, IL-6 at 6 or 36 hours post stimulation; type: cell-based; conditions: THP1-derived macrophages, IFNγ + LPS, 0.1 to 500 μM, FIG. 9
Procedure: Human immortalized monocytic THP-1 cells were maintained in phenol red free RPMI 1640 medium containing 10% (v/v) fetal bovine serum (FBS), 2 mM L-glutamine, penicillin (100 units/mL), streptomycin (100 μg/mL), amphotericin B (2.5 μg/mL), and 50 μM beta-mercaptoethanol (BME) at 37° C. with 5% (v/v) CO2. THP-1 cells were seeded in 1 mL of THP-1 medium (cell culture medium containing 10% (v/v) FBS, 2 mM L-glutamine, penicillin (100 units/mL), streptomycin (100 μg/mL), amphotericin B ([…]), and 50 μM BME)/well at a density of 1×10^6 cells/mL in six-well plates. Cells were differentiated by adding 10, 50, or 100 nM phorbol 12-myristate 13-acetate (PMA) to each well before incubating cells for 5.5 h at 37° C. with 5% (v/v) CO2. Without removing the media, different concentrations (either 0, 0.1, 1.0, 10, 100, 200, or 500 μM) of the compound were added to each well. Cells were stimulated, within 30 min by adding 20 ng/mL interferon gamma (IFNγ) and 100 ng/mL lipopolysaccharide (LPS) to each well. Following stimulation, the THP-1 cells were incubated for 6 or 36 hours at 37° C. with 5% (v/v) CO2. Supernatant was collected and stored at −80° C. until use.
IL-6 released from supernatants collected at 6 or 36 hours post stimulation with IFNγ and LPS were measured using the AlphaLISA Human IL-6 detection kit.

human naïve T cells = assay: Stimulation of blood derived naïve T cells with Der p1 (house dust mite) antigen; type: cell-based; conditions: at 100 μM; human T cells, Der p1 antigen; FIG. 15
Procedure: Naïve T cells from peripheral blood samples were collected and processed using MACSxpress® Whole Blood Pan T Cell Isolation Kit (Miltenyi Biotec), according to the manufacturer's protocol. Isolated naïve T cells were cultured in RPMI medium supplemented with 5% Fetal Bovine Serum (FBS) at 37° C. with 5% (v/v) CO2. T cells were seeded in 24 well plates at a density of 0.5×10^6 cells per well. The cells were pre-treated with the compounds (0, 0.1, 1.0, 10, 100 μM) for 1 hour prior to stimulation. Cells were stimulated with […] of Dermatophagoides pteronyssinus (Der p1) antigen. After 48 hours, fresh […] of Der p1 was added and continued incubating for a further 72 hours at 37° C. with 5% (v/v) CO2. Overall T cells were stimulated with […] of Der p1 antigen for 5 days before supernatants were collected and stored at −80° C. until quantitative detection assays are performed.
Human Interleukin-4 (IL-4), Interleukin-5 (IL-5), Interleukin-6 (IL-6), Interleukin-8 (IL-8), Interleukin-13 ([…]), Interleukin-23 (IL-23), and Interferon gamma (IFNγ) released from supernatants collected post stimulation were measured using Human Magnetic Luminex® Assay Kit. Human Transforming Growth Factor beta (TGFβ) was measured using an Enzyme-Linked Immunosorbent Assay (ELISA)-based analysis.

[2] = system: EPC2 human esophageal keratinocytes; assay: Stimulation of EPC2-hTERT human esophageal keratinocytes with Poly(I:C); type: cell-based; conditions: 24 hours, increasing concentrations; for percent inhibition relative to Stimulated of TSLP expression: FIG. 19A; for percent inhibition relative to Stimulated of IL-6 expression: FIG. 19B; for percent inhibition relative to Stimulated of MCP-1 expression: FIG. 19C
Procedure: EPC2-hTERT (EPC2) cells were maintained in supplemented keratinocyte serum-free medium (KSFM) with 0.09 mM calcium chloride containing epidermal growth factor (5 ng/mL), bovine pituitary extract ([…]), penicillin (100 units/mL), and streptomycin ([…]) (ThermoFisher #17005042) at 37° C. with 5% (v/v) CO2. EPC2 cells were seeded in 12-well plates at 0.55×10^6 cells per well in supplemented KSFM at 37° C. with 5% (v/v) CO2 and after 6 hours the old media is removed and changed with fresh media. After overnight incubation, the old media is changed to supplemented KSFM containing 1.8 mM calcium chloride and incubated for 72 hours at 37° C. with 5% (v/v) CO2. After the old media is removed and fresh supplemented KSFM containing 1.8 mM calcium chloride is added, the cells are pre-treated with different concentrations of compounds (0, 1, 10, 100, 500, 1000 μM) for 1 hour prior to stimulation. To stimulate the cells, Poly (I:C) (Tocris #4287) is added to the wells at […] concentration without removing the media and incubated for 24 hours at 37° C. with 5% (v/v) CO2. Supernatants are collected in Eppendorf tubes, centrifuged in a microfuge at maximum speed for 10 minutes at 4° C., and the centrifuged supernatants stored at −80° C. until quantitative detection assays are performed. Human Interleukin-6 (IL-6), Monocyte Chemoattractant Protein-1 (MCP-1), and Thymic stromal lymphopoietin (TSLP) released from supernatants collected post stimulation were measured using the AlphaLISA detection kit for human IL-6, MCP-1, and TSLP, respectively.

[3] = system: THP-1 derived macrophages; assay: Stimulation of THP-1 cells, cytokine release 72 h post stimulation; type: cell-based, human; conditions: 72 h post stimulation (IFN-γ + LPS); 0.1, 1, 10, 100 or 200 μM vs 0 μM
Procedure: Human immortalized monocytic THP-1 cells were maintained in phenol red free RPMI 1640 medium containing 10% (v/v) fetal bovine serum (FBS), 2 mM L-glutamine, penicillin (100 units/mL), streptomycin (100 μg/mL), amphotericin B (2.5 μg/mL), and 50 μM beta-mercaptoethanol (BME) at 37° C. with 5% (v/v) CO2. THP-1 cells were seeded in 1 mL of THP-1 medium (cell culture medium containing 10% (v/v) FBS, 2 mM L-glutamine, penicillin (100 units/mL), streptomycin (100 μg/mL), amphotericin B (2.5 μg/mL), and 50 μM BME)/well at a density of 1 million cells/mL in six-well plates. Cells were differentiated by adding 100 nM phorbol 12-myristate 13-acetate (PMA) to each well before incubating cells for 5.5 h at 37° C. with 5% (v/v) CO2. Without removing the media, different concentrations (either 0, 0.1, 1, 10, 100, or 200 μM) of 1 and 10 were added to each well. Cells were stimulated, within 30 min by adding 20 ng/mL interferon gamma (IFN-γ) and 100 ng/mL lipopolysaccharide (LPS) to each well. Following stimulation, the THP-1 cells were incubated for 72 h at 37° C. with 5% (v/v) CO2. Supernatant was collected and stored at −80° C. until use.
IL-6 release from supernatant collected at 72 hours post stimulation was measured using the AlphaLISA Human IL-6 detection kit.
TNFα release from supernatant collected at 72 hours post stimulation was measured using the AlphaLISA Human TNFα detection kit.

[4] = system: A549 human alveolar epithelial cells; assay: Stimulation of A549 human lung carcinoma cell line, cytokine expression; type: cell-based; conditions: A549, 10 ng/mL TNFα + 10 ng/mL IL-1β, 48 hours
Procedure: A549 cells are cultured in DMEM supplemented with 2 mM glutamine and 10% Fetal Bovine Serum (FBS) at 37° C. with 5% (v/v) CO2. Cells are grown to approximately 80% confluency before being passage and media is changed every 2-3 days. A549 cells are seeded in 24-well plates at a density of 0.5×10^6 cells per well at 37° C. with 5% (v/v) CO2. The cells are pre-treated with the compounds (0, 1.0, 10, 100 μM) for 1 hour prior to addition of 10 ng/mL of TNFα and 10 ng/mL of IL-1β for 48 hours at 37° C. with 5% (v/v) CO2. Supernatants were collected and stored at −80° C. until quantitative detection assays are performed.
Human Eotaxin, Monocyte Chemoattractant Protein-1 (MCP-1), Interleukin-6 (IL-6), Interleukin-25 (IL-25), Interleukin-33 (IL-33), Thymic stromal lymphopoietin (TSLP), and Granulocyte-Macrophage Colony-Stimulating Factor (GM-CSF) released from supernatants collected post stimulation were measured using Human Magnetic Luminex® Assay Kit. Human CCL5/RANTES was measured using an Enzyme-Linked Immunosorbent Assay (ELISA)-based analysis.

Row | SMILES | percent inhibition relative to Control of IL-6 levels secreted [1] | percent inhibition relative to Stimulated of IL-6 expression (human naïve T cells) | percent inhibition relative to Stimulated of IL-8 expression (human naïve T cells) | percent inhibition relative to Stimulated of TNFα expression (human naïve T cells) | percent inhibition relative to Stimulated of TSLP expression [2] | percent inhibition relative to Stimulated of IL-6 expression [2] | percent inhibition relative to Stimulated of MCP-1 expression [2] | fold change of IL-6 levels secreted by the THP1-derived macrophages [3] | fold change of TNFα levels secreted by the THP1-derived macrophages [3] | percent inhibition relative to Stimulated of GM-CSF expression ([4]; 1.0, 10, 100 μM, FIG. 16, 17) | percent inhibition relative to Stimulated of IL-25 expression ([4]; 1.0, 10, 100 μM, FIG. 16, 17) | percent inhibition relative to Stimulated of IL-33 expression ([4]; 1.0, 10, 100 μM, FIG. 16, 17) | percent inhibition relative to Stimulated of MCP-1 expression ([4]; 1.0, 10, 100 μM, FIG. 16, 17) | percent inhibition relative to Stimulated of Eotaxin expression ([4]; FIG. 18) | percent inhibition relative to Stimulated of IL-6 expression ([4]; FIG. 18) | percent inhibition relative to Stimulated of RANTES expression ([4]; FIG. 18) | percent inhibition relative to Stimulated of TSLP expression ([4]; FIG. 18)
1 | C[C@H](CC/C=C/C(=O)OCC1CCCCC1)O[C@@H]1O[C@@H](C)[C@H](O)C[C@H]1O [Compound 3, cyclohexylmethyl (2E,6R)-6-{[(2R,3R,5R,6S)-3,5-dihydroxy-6-methyloxan-2-yl]oxy}hept-2-enoate] | inhibited IL-6 expression in statistically significant, dose-dependent manner | statistically significant inhibition | statistically significant inhibition | statistically significant inhibition | statistically significant inhibition; also recorded: completely inhibited | inhibited IL-6 expression in statistically significant, dose-dependent manner | inhibited MCP-1 expression in statistically significant, dose-dependent manner | – | – | – | – | – | – | – | – | – | –
2 | C[C@H](CCCCC(=O)OC(C)(C)C)O[C@@H]1O[C@@H](C)[C@H](O)C[C@H]1O [Compound 10, tert-butyl (R)-6-(((2R,3R,5R,6S)-3,5-dihydroxy-6-methyltetrahydro-2H-pyran-2-yl)oxy)heptanoate] | inhibited IL-6 expression in statistically significant, dose-dependent manner | – | – | – | statistically significant inhibition; also recorded: robust blocking | inhibited IL-6 expression in statistically significant, dose-dependent manner | inhibited MCP-1 expression in statistically significant, dose-dependent manner | reduced these levels significantly; also recorded: even more significantly reduced | reduced these levels significantly | overall statistically significant, dose-dependent inhibition | overall statistically significant, dose-dependent inhibition | overall statistically significant, dose-dependent inhibition | overall statistically significant, dose-dependent inhibition | robust, statistically significant inhibition | robust, statistically significant inhibition | robust, statistically significant inhibition | robust, statistically significant inhibition
